# ChEMBL document CHEMBL1201862, “PubChem BioAssay data set” (2004)
#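 The compound was tested at five concentrations on cells cultured in 96-well plates, with a 48-hour exposure period. Here, GI50 denotes the concentration required for 50% inhibition of growth.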 The source made the active and inactive calls. No stated cut-off is given here; in the data, active = GI50 up to about 1.1 µM and inactive = higher.
# Assays:
# Experiment in all cases: NCI tumour cell line growth inhibition, 48 h
# Hs-578T = test system: Hs-578T
# HOP-92 = test system: HOP-92
# SNB-75 = test system: SNB-75
# KM12 = test system: KM12
# SN12C = test system: SN12C
# CAKI-1 = test system: CAKI-1
# SNB-19 = test system: SNB-19
# PC-3 = test system: PC-3
# LOX IMVI = test system: LOX IMVI
# SR = test system: SR
# SW-620 = test system: SW-620
# NCI-H23 = test system: NCI-H23
# COLO 205 = test system: COLO 205
# OVCAR-8 = test system: OVCAR-8
# RPMI-8226 = test system: RPMI-8226
# HL-60 = test system: HL-60
Structure (SMILES),GI50 (Hs-578T),GI50 (HOP-92),GI50 (SNB-75),GI50 (KM12),GI50 (SN12C),GI50 (CAKI-1),GI50 (SNB-19),GI50 (PC-3),GI50 (LOX IMVI),GI50 (SR),GI50 (SW-620),GI50 (NCI-H23),GI50 (COLO 205),GI50 (OVCAR-8),GI50 (RPMI-8226),GI50 (HL-60)
Cc1ccc(OCC2OC(n3cnc4nc(N)nc(Cl)c43)CC2Oc2ccc(C)cc2)cc1 (stereo not given),15.4 µM (inactive),17.3 µM (inactive),11 µM (inactive),21 µM (inactive),15.8 µM (inactive),4.08 µM (inactive),11.8 µM (inactive),21.9 µM (inactive),15.7 µM (inactive),6.71 µM (inactive),32.5 µM (inactive),15.6 µM (inactive),16.8 µM (inactive),15.7 µM (inactive),7.98 µM (inactive),
C=CCN(c1cc(OC)c2[nH]c(C(=O)O)c(C)c2c1[N+](=O)[O-])S(C)(=O)=O,> 100 µM (inactive),,> 100 µM (inactive),> 100 µM (inactive),54.3 µM (inactive),> 100 µM (inactive),> 100 µM (inactive),> 100 µM (inactive),> 100 µM (inactive),> 100 µM (inactive),> 100 µM (inactive),> 100 µM (inactive),> 100 µM (inactive),> 100 µM (inactive),> 100 µM (inactive),> 100 µM (inactive)
CN1CCOC(c2ccc(Cl)cc2)O1 (stereo not given),,> 100 µM (inactive),> 100 µM (inactive),> 100 µM (inactive),> 100 µM (inactive),> 100 µM (inactive),> 100 µM (inactive),> 100 µM (inactive),,> 100 µM (inactive),> 100 µM (inactive),> 100 µM (inactive),> 100 µM (inactive),> 100 µM (inactive),,
Cc1sc2nc3n(c(=O)c2c1C)N=CN(c1ccc(F)cc1)C3,22.4 µM (inactive),24.2 µM (inactive),42.4 µM (inactive),> 100 µM (inactive),32.9 µM (inactive),> 100 µM (inactive),38 µM (inactive),> 100 µM (inactive),> 100 µM (inactive),> 100 µM (inactive),> 100 µM (inactive),> 100 µM (inactive),> 100 µM (inactive),65.6 µM (inactive),> 100 µM (inactive),
c1cc(CSP234N5CCN2CCN3CCN4CC5)ccc1CSP123N4CCN1CCN2CCN3CC4,> 100 µM (inactive),92.3 µM (inactive),> 100 µM (inactive),> 100 µM (inactive),> 100 µM (inactive),> 100 µM (inactive),> 100 µM (inactive),> 100 µM (inactive),49.1 µM (inactive),,> 100 µM (inactive),> 100 µM (inactive),> 100 µM (inactive),> 100 µM (inactive),16.4 µM (inactive),0.465 µM (active)
Cc1ccc(C2C(C(=O)C(C)(C)C)N2S(=O)(=O)c2ccc(C)cc2)cc1 (stereo not given),28.7 µM (inactive),,19.5 µM (inactive),34.5 µM (inactive),19.8 µM (inactive),26.4 µM (inactive),22.5 µM (inactive),29.7 µM (inactive),22.4 µM (inactive),,26.8 µM (inactive),23.7 µM (inactive),19.5 µM (inactive),21.3 µM (inactive),18.9 µM (inactive),
O=C1/C(=C2/CCCN2)C(c2ccc[nH]2)=NN1c1ccccc1,,> 100 µM (inactive),> 100 µM (inactive),> 100 µM (inactive),> 100 µM (inactive),> 100 µM (inactive),> 100 µM (inactive),> 100 µM (inactive),> 100 µM (inactive),,> 100 µM (inactive),> 100 µM (inactive),> 100 µM (inactive),> 100 µM (inactive),> 100 µM (inactive),> 100 µM (inactive)
CC1(C)CC(=O)c2c(nc3c(ccc4ccccc43)c2-c2ccc(NC(=O)CCCCCCCCC(=O)Nc3ccc(-c4c5c(nc6c4ccc4ccccc46)CC(C)(C)CC5=O)cc3)cc2)C1,> 100 µM (inactive),,> 100 µM (inactive),> 100 µM (inactive),> 100 µM (inactive),> 100 µM (inactive),> 100 µM (inactive),> 100 µM (inactive),> 100 µM (inactive),> 100 µM (inactive),> 100 µM (inactive),,> 100 µM (inactive),> 100 µM (inactive),> 100 µM (inactive),> 100 µM (inactive)
CCC(c1c[nH]c2ccc(Br)cc12)c1c[nH]c2ccc(Br)cc12,5.82 µM (inactive),2.05 µM (inactive),,1.97 µM (inactive),3.7 µM (inactive),2.45 µM (inactive),8.57 µM (inactive),4.81 µM (inactive),2.44 µM (inactive),,3.94 µM (inactive),2.96 µM (inactive),2.42 µM (inactive),4.53 µM (inactive),2.5 µM (inactive),4.39 µM (inactive)
O=C1N/C(=N/N=C\c2ccccc2)N/C1=C/c1ccc(Cl)cc1,20.5 µM (inactive),,18.7 µM (inactive),27.1 µM (inactive),23.2 µM (inactive),33.2 µM (inactive),15.6 µM (inactive),18.4 µM (inactive),26.1 µM (inactive),13.3 µM (inactive),30.6 µM (inactive),19 µM (inactive),32.2 µM (inactive),21.7 µM (inactive),20 µM (inactive),
CCOC(=O)/C(C(=O)NC(C)C)=C(/N)N1CCOCC1,> 100 µM (inactive),> 100 µM (inactive),> 100 µM (inactive),> 100 µM (inactive),> 100 µM (inactive),> 100 µM (inactive),> 100 µM (inactive),> 100 µM (inactive),> 100 µM (inactive),,> 100 µM (inactive),> 100 µM (inactive),> 100 µM (inactive),> 100 µM (inactive),> 100 µM (inactive),> 100 µM (inactive)
CNC1(c2cc3ccccc3s2)CCCCC1,,14.3 µM (inactive),21.5 µM (inactive),17.9 µM (inactive),38.1 µM (inactive),42.1 µM (inactive),41.8 µM (inactive),18.1 µM (inactive),19.9 µM (inactive),25 µM (inactive),< 0.01 µM (active),57.4 µM (inactive),18.9 µM (inactive),37.2 µM (inactive),,< 0.01 µM (active)
C[C@@H]1OC(=O)/C(=C\N(C)C)[C@H]2CC(=O)N(CCc3cn(S(=O)(=O)C(F)(F)F)c4ccccc34)C[C@H]12,,> 100 µM (inactive),> 100 µM (inactive),> 100 µM (inactive),> 100 µM (inactive),> 100 µM (inactive),> 100 µM (inactive),> 100 µM (inactive),> 100 µM (inactive),,> 100 µM (inactive),> 100 µM (inactive),> 100 µM (inactive),,> 100 µM (inactive),
CCOC(=O)C1(C/C=C\CBr)CCCCCCC1=O (stereo not given),> 100 µM (inactive),,> 100 µM (inactive),> 100 µM (inactive),> 100 µM (inactive),> 100 µM (inactive),> 100 µM (inactive),> 100 µM (inactive),> 100 µM (inactive),,> 100 µM (inactive),> 100 µM (inactive),> 100 µM (inactive),> 100 µM (inactive),,> 100 µM (inactive)
